From US10159653B2, “Methods and compositions for increasing energy expenditure using cinnamaldehyde” (NESTEC S.A., priority 2013, dated 2018)
pEC50: −log10 of the molar value.

Key:
Human subjects [1] = test: Nose temperature after ingestion; format: in vivo; details: fifteen minutes following ingestion
Protocol: The nose temperature of the subjects was analyzed over the fifteen minutes following ingestion of the various compounds.

Human subjects [2] = test: Comparative taste testing; format: in vivo; details: 4.8 ppm capsaicin or 350 ppm cinnamaldehyde
Protocol: Human subjects were administered a composition comprising 4.8 ppm capsaicin or 350 ppm cinnamaldehyde. […] 87.9% of the participants judged capsaicin intense to very intense, compared to only 20.5% for cinnamaldehyde. To achieve a similar effect on fat oxidation of capsaicin and cinnamaldehyde, the dose of capsaicin is about 1.5 times less than the maximum that can be used as a flavor (7 ppm according to Fenaroli's Handbook), and the dose of cinnamaldehyde is about 17.5 times less than the maximum that can be used as a flavor (6191.0 ppm according to Fenaroli's Handbook).

[3] = Ludy et al. 2011; cited from earlier work
Human subjects [4] = test: Energy expenditure after ingestion (indirect calorimetry); format: in vivo
Protocol: Human subjects were administered placebo, a cooling flavor, capsaicin or cinnamaldehyde. The energy expenditure was measured over the eighty minutes following ingestion. […] The increased sympathetic activity identified by measuring the facial temperature (increased blood flow on the chin) might explain the increased energy expenditure measured by indirect calorimetry.

Human subjects [5] = test: Postprandial fat oxidation after ingestion; format: in vivo
Protocol: The postprandial fat oxidation was measured over the 90 minutes following ingestion of the various compounds.

Human subjects [6] = test: Chin temperature after ingestion (sympathetic nervous system activity); format: in vivo
Protocol: The chin temperature of the subjects was measured over the eighty minutes following ingestion of the various compounds. […] The increased sympathetic activity identified by measuring the facial temperature (increased blood flow on the chin) might explain the increased energy expenditure measured by indirect calorimetry.

TRPA1 [7] = target: T1, TRPA1 (Mus musculus, UniProt Q8BLA8); test: Pre-clinical study, single dose: gastric emptying and short term food intake; format: in vivo; details: single dose 250 mg/kg bw
T1 construct: endogenous in cells; host or cells: living animals of the pre-clinical study (probably mice)
T1 sequence (Q8BLA8 whole entry): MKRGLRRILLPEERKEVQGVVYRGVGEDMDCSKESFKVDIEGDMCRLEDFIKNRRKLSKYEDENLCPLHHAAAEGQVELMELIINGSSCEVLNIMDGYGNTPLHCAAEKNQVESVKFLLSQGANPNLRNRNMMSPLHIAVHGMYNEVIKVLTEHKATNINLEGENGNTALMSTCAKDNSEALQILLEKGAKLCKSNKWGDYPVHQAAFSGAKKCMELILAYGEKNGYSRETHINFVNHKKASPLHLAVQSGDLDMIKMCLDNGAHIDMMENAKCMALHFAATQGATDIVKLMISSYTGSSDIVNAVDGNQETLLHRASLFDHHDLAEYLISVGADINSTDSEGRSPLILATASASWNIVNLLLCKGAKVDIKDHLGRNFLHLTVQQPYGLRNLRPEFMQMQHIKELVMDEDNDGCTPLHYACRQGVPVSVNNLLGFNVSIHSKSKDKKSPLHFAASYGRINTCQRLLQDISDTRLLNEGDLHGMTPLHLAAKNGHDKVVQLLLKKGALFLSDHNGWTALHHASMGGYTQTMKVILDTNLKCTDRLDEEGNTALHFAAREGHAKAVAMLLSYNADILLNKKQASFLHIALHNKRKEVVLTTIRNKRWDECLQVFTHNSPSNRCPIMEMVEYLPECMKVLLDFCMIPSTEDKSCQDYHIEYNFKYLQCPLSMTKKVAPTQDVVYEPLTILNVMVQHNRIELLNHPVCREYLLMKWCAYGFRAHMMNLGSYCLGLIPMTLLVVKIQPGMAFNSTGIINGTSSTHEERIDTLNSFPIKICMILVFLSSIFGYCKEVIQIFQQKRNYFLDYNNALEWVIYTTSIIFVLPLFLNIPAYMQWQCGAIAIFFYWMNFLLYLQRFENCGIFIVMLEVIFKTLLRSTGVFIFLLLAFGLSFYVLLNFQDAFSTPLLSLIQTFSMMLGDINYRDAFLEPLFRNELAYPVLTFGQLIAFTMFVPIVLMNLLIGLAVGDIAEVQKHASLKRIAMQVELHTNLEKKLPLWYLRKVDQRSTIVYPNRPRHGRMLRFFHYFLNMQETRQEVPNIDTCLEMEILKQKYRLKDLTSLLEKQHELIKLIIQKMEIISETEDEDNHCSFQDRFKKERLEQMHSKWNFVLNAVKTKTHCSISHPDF

obese mice = test: Pre-clinical study, chronic ingestion in food; format: in vivo; details: 0.2% in food
Protocol: The findings of the inventors were especially surprising in that a low dose (1.25 mg/kg body weight per day) of cinnamaldehyde at a flavoring range can provide an effect after a single ingestion. In a pre-clinical study by the inventors, the dose of cinnamaldehyde was about 250 mg/kg body weight per day, with chronic ingestion (effect on body weight gain and insulin sensitivity).

TRPA1 [8] = details: read-out: EC50 of TRPA1 activation; cited from earlier work
TRPV1 = TRPV1 (Homo sapiens, UniProt Q8NER1); details: cited from earlier work
TRPV1, sequence (Q8NER1 whole entry, species assumed): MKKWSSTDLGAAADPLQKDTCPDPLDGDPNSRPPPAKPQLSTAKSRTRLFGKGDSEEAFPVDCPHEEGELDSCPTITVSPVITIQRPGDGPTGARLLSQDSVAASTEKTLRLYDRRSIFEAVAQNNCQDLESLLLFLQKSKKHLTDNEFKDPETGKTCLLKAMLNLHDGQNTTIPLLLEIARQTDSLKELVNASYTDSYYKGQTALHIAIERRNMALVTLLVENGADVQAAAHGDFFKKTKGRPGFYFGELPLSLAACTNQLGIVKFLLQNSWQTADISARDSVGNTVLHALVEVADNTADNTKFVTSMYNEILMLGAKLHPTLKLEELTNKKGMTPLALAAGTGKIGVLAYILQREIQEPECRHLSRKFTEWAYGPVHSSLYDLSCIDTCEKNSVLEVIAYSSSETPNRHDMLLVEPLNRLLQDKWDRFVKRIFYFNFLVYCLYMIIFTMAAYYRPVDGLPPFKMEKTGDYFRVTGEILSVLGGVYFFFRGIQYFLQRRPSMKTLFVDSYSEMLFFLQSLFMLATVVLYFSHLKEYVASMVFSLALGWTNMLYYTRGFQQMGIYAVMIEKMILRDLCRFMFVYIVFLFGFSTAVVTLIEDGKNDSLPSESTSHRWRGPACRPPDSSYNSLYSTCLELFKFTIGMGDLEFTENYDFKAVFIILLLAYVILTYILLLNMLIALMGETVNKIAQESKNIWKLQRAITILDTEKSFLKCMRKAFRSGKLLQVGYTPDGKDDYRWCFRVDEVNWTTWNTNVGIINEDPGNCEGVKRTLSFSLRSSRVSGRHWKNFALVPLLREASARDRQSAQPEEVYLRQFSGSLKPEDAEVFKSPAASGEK

TRPM8 = TRPM8 (Homo sapiens, UniProt Q7Z2W7); details: cited from earlier work
TRPM8, sequence (Q7Z2W7 whole entry, species assumed): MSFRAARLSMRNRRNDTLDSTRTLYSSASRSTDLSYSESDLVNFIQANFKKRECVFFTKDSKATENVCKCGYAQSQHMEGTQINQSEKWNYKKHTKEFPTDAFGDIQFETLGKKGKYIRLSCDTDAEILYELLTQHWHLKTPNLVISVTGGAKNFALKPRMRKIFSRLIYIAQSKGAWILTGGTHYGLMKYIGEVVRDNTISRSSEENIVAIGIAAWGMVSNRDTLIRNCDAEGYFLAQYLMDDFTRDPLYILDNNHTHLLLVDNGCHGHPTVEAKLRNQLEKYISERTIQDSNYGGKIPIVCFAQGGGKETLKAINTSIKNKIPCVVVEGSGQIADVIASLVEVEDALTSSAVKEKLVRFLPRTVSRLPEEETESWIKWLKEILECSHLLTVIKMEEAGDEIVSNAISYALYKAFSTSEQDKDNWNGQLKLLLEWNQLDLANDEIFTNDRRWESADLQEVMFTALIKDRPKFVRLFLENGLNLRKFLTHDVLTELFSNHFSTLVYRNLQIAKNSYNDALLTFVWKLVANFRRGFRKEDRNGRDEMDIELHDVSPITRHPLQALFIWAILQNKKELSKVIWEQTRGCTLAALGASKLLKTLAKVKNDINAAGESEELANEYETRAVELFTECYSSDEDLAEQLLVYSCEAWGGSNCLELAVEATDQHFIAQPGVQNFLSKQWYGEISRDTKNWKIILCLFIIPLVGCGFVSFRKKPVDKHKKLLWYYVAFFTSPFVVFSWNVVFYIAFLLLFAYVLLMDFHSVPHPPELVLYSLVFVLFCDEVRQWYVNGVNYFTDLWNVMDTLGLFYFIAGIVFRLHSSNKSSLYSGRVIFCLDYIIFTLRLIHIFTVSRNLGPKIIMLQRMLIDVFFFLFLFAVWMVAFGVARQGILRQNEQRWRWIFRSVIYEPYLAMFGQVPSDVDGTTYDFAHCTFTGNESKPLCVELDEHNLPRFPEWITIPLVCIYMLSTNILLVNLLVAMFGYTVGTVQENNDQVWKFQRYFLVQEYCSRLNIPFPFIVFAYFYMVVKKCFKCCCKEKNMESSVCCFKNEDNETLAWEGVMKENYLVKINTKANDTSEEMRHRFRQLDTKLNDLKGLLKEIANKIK

[9] = flavoring level of cinnamaldehyde judged significantly less intense than capsaicin

Structure (SMILES)	nose temperature (Human subjects [1])	participants who judged the taste intense to very intense (Human subjects [2])	efficient dose for increasing energy expenditure and fat oxidation [3]	impact on energy expenditure compared to capsaicin (Human subjects [4]; [9])	energy expenditure compared to placebo (Human subjects [4]; human subjects, eighty minutes following ingestion, time course and AUC)	effect on fat oxidation compared to capsaicin (Human subjects [5]; [9])	postprandial fat oxidation compared to placebo (Human subjects [5]; human subjects, 90 minutes following ingestion, time course and AUC)	impact on sympathetic nervous system activity compared to capsaicin (Human subjects [6]; [9])	chin temperature relative to baseline (Human subjects [6]; human subjects, eighty minutes following ingestion)	short term food intake (TRPA1 [7])	gastric emptying (TRPA1 [7]; through TRPA1 activation)	lean mass gain (obese mice)	body weight gain (obese mice; about 250 mg/kg bw/day)	food intake (obese mice; about 250 mg/kg bw/day)	insulin sensitivity (obese mice; about 250 mg/kg bw/day)	fat mass gain (obese mice; p 0.06)	pEC50 (TRPA1 [8])	activation of TRPV1 (TRPV1)	activation of TRPM8 (TRPM8)
COc1cc(CNC(=O)CCCC/C=C/C(C)C)ccc1O [capsaicin]	increase nose temperatures	87.9%	≥ 20 mg																
O=CC=Cc1ccccc1 [cinnamaldehyde]	increase nose temperatures			significantly higher impact	increased	equivalent effect	maintained at higher levels	significantly higher impact	increases chin temperature for a prolonged time	reduced short term food intake	delayed gastric emptying	no effect	reduces body weight gain	without affecting their food intake	improves their insulin sensitivity	tendency to decrease	~4.22	not	not
